Measured values from patent US10519105B2, “KCNQ2-5 channel activator” (ONO PHARMACEUTICAL CO., LTD., priority 2016, dated 2019).
Values after ≈ are worked out from the molar mass of the structure shown.

Columns and labels:
[1] = Solubility test (DMSO precipitation method, Japanese Pharmacopoeia dissolution test second solution); type: physicochemical; details: aqueous buffer, kinetic from dmso stock, JP dissolution test second solution pH 6.8, room temperature, quantification range 5 to 100 μM
Method: A calibration curve solution was prepared at 0.1, 0.4, and 2 μM by diluting a test substance (a 10 mM DMSO solution) with acetonitrile and adding acetonitrile containing an internal standard substance (candesartan).
A sample solution was prepared as follows. 5 μL of the compound of the present invention (a 10 mM DMSO solution) was added to 495 μL of the Japanese Pharmacopoeia dissolution test second solution (pH: 6.8), followed by stirring at room temperature for 5 hours. Then, the solution was transferred to a solubility filter plate and subjected to suction filtration. The filtrate (20 μL) was diluted with acetonitrile, followed by adding acetonitrile containing an internal standard substance (candesartan).
Each of the calibration curve and sample solutions (5 μL) was injected into LC-MS/MS (Discovery Max, manufactured by Thermo Scientific, Inc.) and subjected to quantification (quantification range: 5 to 100 μM). The solubility in the case where the value equal to or less than the quantification range was obtained was defined as <5 μM, and the solubility in the case where the value equal to or more than the quantification range was obtained was defined as […].

Human KCNQ2/3 channel = target: T1, Human KCNQ2/3 channel (Homo sapiens, UniProt O43525+O43526); assay: Opening action with respect to KCNQ2/3 channel by depolarization stimulation (thallium influx, FLIPR); type: cell-based; details: concentration giving 50% of the maximum reaction of retigabine (10 μM); human KCNQ2/3 expressing CHO-DHFR- cells; read-out: KCNQ2/3 ECrtg50
T1 construct: expressed in transfected cells; host or cells: CHO-DHFR- cells
Method: Human KCNQ2/3 expression cells (CHO-DHFR− cells) were seeded in each well of a 384-well plate (collagen-coated, black, clear bottom) at 0.5×10^4 cells/50 μL per well and cultured using a MEM ALPHA medium (containing 10 vol % inactivated (56° C., 30 min) fetal bovine serum, 100 IU/mL penicillin, 100 μg/mL streptomycin, and 2 mM L-glutamine) at 37° C. in 5% CO2 for 18 to 24 hours. After the medium in the plate was removed, incubation (room temperature, 60 minutes, shading) was performed in a loading buffer (prepared by the method described in the manual of FluxOR Thallium Detection Kit (Invitrogen, F10016, F10017)). A KCNQ2/3 channel opening action (thallium influx into cells) by depolarization stimulation (5 mM potassium and 0.5 mM thallium) was measured by FLIPR TETRA (Molecular Devices). The compound of the present invention was treated 5 minutes before the depolarization stimulation, and the reaction induced by the depolarization stimulation was measured over time for 180 seconds. The channel opening action of the compound of the present invention was evaluated based on the change amount of the fluorescence intensity from the time before the depolarization stimulation to the time after the elapse of 180 seconds, and the concentration (ECrtg50) satisfying 50% of the fluorescence intensity change of a maximum reaction (in the treatment at 10 μM) of retigabine under the conditions of this experiment was calculated.

[2] = Stability in human liver microsomes; type: in vitro ADME; details: human liver microsomes 0.5 mg/mL, NADPH, 5 μM, 37° C., 15 minutes
Method: A test compound (a 10 mM DMSO solution, 5 μL) was diluted with a 50% aqueous acetonitrile solution (195 μL), whereby a 0.25 mM solution was prepared.
To a reaction vessel preheated to 37° C., 0.5 mg/mL of human liver microsomes (XenoTech, LLC) and 245 JLL of a 0.1 M phosphate buffer solution (pH 7.4) containing NADPH co-factor (BD Biosciences) were added, followed by preincubation for 5 minutes, and thereafter, the above-prepared test compound solution (5 μL) was added thereto to start a reaction (final concentration: 5 μM). Immediately after the start, a 20 μL portion was collected and added to 180 μL of acetonitrile containing an internal standard substance (warfarin) to stop the reaction. A 20 μL portion of this solution was stirred with 180 μL of a 50% aqueous acetonitrile solution on a plate equipped with a deproteinization filter, followed by suction filtration, and the filtrate was used as a standard sample.
After the above-prepared reaction solution was incubated at 37° C. for 15 minutes, a 20 μL portion of the solution was added to 180 μL of cooled acetonitrile (containing warfarin serving as an internal standard substance) to stop the reaction. A 20 μL portion of this solution was stirred with 180 μL of a 50% aqueous acetonitrile solution on a plate equipped with a deproteinization filter, followed by suction filtration, and the filtrate was used as a reaction sample.
A residual ratio (%) was calculated as follows. 1 μL of the sample solution was injected into LC-MS/MS (Discovery Max, manufactured by Thermo Scientific, Inc.), and a value obtained by dividing the peak area ratio of the reaction sample (peak area of test compound/peak area of internal standard substance) by the peak area ratio of the standard sample was multiplied by 100.

CC1(O)CCc2c1cc(Cl)c(NC(=O)NCCc1ccc(F)cc1)c2Cl (stereo not drawn) [Example 3(7), 1-(4,6-dichloro-1-hydroxy-1-methyl-2,3-dihydro-1H-inden-5-yl)-3-[2-(4-fluorophenyl)ethyl]urea] showed a solubility at 5 h [1] of 86 µM (≈ 34.2 µg/mL) and an EC50 (Human KCNQ2/3 channel) of 500 nM.

Work on CC1(O)CCc2c1cc(Cl)c(NC(=O)NCc1cccc(C(F)(F)F)c1)c2Cl (stereo not drawn) [Example 3(9), 1-(4,6-dichloro-1-hydroxy-1-methyl-2,3-dihydro-1H-inden-5-yl)-3-[3-(trifluoromethyl)benzyl]urea] yielded an EC50 (Human KCNQ2/3 channel) of 40 nM.

For CC1(O)CCc2c1cc(Cl)c(NC(=O)NC(C)(C)c1ccc(F)cc1)c2Cl (stereo not drawn) [Example 3(10), 1-(4,6-dichloro-1-hydroxy-1-methyl-2,3-dihydro-1H-inden-5-yl)-3-[2-(4-fluorophenyl)-2-propanyl]urea], the EC50 (Human KCNQ2/3 channel) was 300 nM.

CC1(O)CCc2c1cc(Cl)c(NC(=O)NCCC1CCCC1)c2Cl (stereo not drawn) [Example 3(13), 1-(2-cyclopentylethyl)-3-(4,6-dichloro-1-hydroxy-1-methyl-2,3-dihydro-1H-inden-5-yl)urea] showed a solubility at 5 h [1] of 92 µM (≈ 34.2 µg/mL) and an EC50 (Human KCNQ2/3 channel) of 20 nM.

Work on CC1(O)CCc2c1cc(Cl)c(NC(=O)NCc1ccc(OC(F)(F)F)cc1F)c2Cl (stereo not drawn) [Example 3(16), 1-(4,6-dichloro-1-hydroxy-1-methyl-2,3-dihydro-1H-inden-5-yl)-3-[2-fluoro-4-(trifluoromethoxy)benzyl]urea] yielded an EC50 (Human KCNQ2/3 channel) of 30 nM.

CC1(O)CCc2c1cc(Cl)c(NC(=O)OCc1ccc(F)cc1)c2Cl (stereo not drawn) [Example 3(19), 4-fluorobenzyl(4,6-dichloro-1-hydroxy-1-methyl-2,3-dihydro-1H-inden-5-yl)carbamate] gave a solubility at 5 h [1] of 76 µM (≈ 29.2 µg/mL), an EC50 (Human KCNQ2/3 channel) of 50 nM and a Residual ratio [2] of 83%.

For CC1(O)CCc2c1cc(Cl)c(NC(=O)NCCOc1ccc(F)cc1)c2Cl (stereo not drawn) [Example 3(23), 1-(4,6-dichloro-1-hydroxy-1-methyl-2,3-dihydro-1H-inden-5-yl)-3-[2-(4-fluorophenoxy)ethyl]urea], the solubility at 5 h [1] was 83 µM (≈ 34.3 µg/mL) and the EC50 (Human KCNQ2/3 channel) was 600 nM.

CC1(O)CCc2c1cc(Cl)c(NC(=O)NCCOC1CCCCC1)c2Cl (stereo not drawn) [Example 3(24), 1-[2-(cyclohexyloxy)ethyl]-3-(4,6-dichloro-1-hydroxy-1-methyl-2,3-dihydro-1H-inden-5-yl)urea] gave an EC50 (Human KCNQ2/3 channel) of 400 nM.

In the case of CC1(O)CCc2c1cc(Cl)c(NC(=O)NCC1CC3CCC1C3)c2Cl (stereo not drawn) [Example 3(25), 1-(bicyclo[2.2.1]hept-2-ylmethyl)-3-(4,6-dichloro-1-hydroxy-1-methyl-2,3-dihydro-1H-inden-5-yl)urea], the EC50 (Human KCNQ2/3 channel) is reported as 10 nM.

For CC1(CNC(=O)Nc2c(Cl)cc3c(c2Cl)CCC3(O)C(F)(F)F)CCOCC1 (stereo not drawn) [Example 12(2), 1-[4,6-dichloro-1-hydroxy-1-(trifluoromethyl)-2,3-dihydro-1H-inden-5-yl]-3-[(4-methyltetrahydro-2H-pyran-4-yl)methyl]urea], the solubility at 5 h [1] was 85 µM (≈ 37.5 µg/mL) and the EC50 (Human KCNQ2/3 channel) was 200 nM.

Cc1cc(CNC(=O)Nc2c(Cl)cc3c(c2Cl)CCC3(O)C(F)(F)F)no1 (stereo not drawn) [Example 12(8), 1-[4,6-dichloro-1-hydroxy-1-(trifluoromethyl)-2,3-dihydro-1H-inden-5-yl]-3-[(5-methyl-1,2-oxazole-3-yl)methyl]urea] gave a solubility at 5 h [1] of 94 µM (≈ 39.9 µg/mL), an EC50 (Human KCNQ2/3 channel) of 200 nM and a Residual ratio [2] of 100%.

Work on O=C(NCc1cccc(N2CCCCC2)n1)Nc1c(Cl)cc2c(c1Cl)CCC2(O)C(F)(F)F (stereo not drawn) [Example 12(9), 1-[4,6-dichloro-1-hydroxy-1-(trifluoromethyl)-2,3-dihydro-1H-inden-5-yl]-3-{[6-(1-piperidinyl)-2 pyridinyl]methyl}urea] yielded an EC50 (Human KCNQ2/3 channel) of 50 nM.

Work on O=C(NCC1CC1)Nc1c(Cl)cc2c(c1Cl)CCC2(O)C(F)(F)F (stereo not drawn) [Example 12(13), 1-(cyclopropylmethyl)-3-[4,6-dichloro-1-hydroxy-1-(trifluoromethyl)-2,3-dihydro-1H-inden-5-yl]urea] yielded a solubility at 5 h [1] of 78 µM (≈ 29.9 µg/mL), an EC50 (Human KCNQ2/3 channel) of 60 nM and a Residual ratio [2] of 100%.

O=C(NCc1ccc(-c2ccc(Cl)cc2)o1)Nc1c(Cl)cc2c(c1Cl)CCC2(O)C(F)(F)F (stereo not drawn) [Example 12(16), 1-{[5-(4-chlorophenyl)-2-furyl]methyl}-3-[4,6-dichloro-1-hydroxy-1-(trifluoromethyl)-2,3-dihydro-1H-inden-5-yl]urea] gave an EC50 (Human KCNQ2/3 channel) of 10 nM.

For CC1(CNC(=O)Nc2c(Cl)cc3c(c2Cl)CCC3(O)C(F)(F)F)CC1 (stereo not drawn) [Example 12(17), 1-[4,6-dichloro-1-hydroxy-1-(trifluoromethyl)-2,3-dihydro-1H-inden-5-yl]-3-[(1-methylcyclopropyl)methyl]urea], the EC50 (Human KCNQ2/3 channel) was 20 nM.

O=C(NCc1cc2ccccc2[nH]1)Nc1c(Cl)cc2c(c1Cl)CCC2(O)C(F)(F)F (stereo not drawn) [Example 12(21), 1-[4,6-dichloro-1-hydroxy-1-(trifluoromethyl)-2,3-dihydro-1H-inden-5-yl]-3-(1H-indol-2-ylmethyl)urea] showed an EC50 (Human KCNQ2/3 channel) of 20 nM.

With C[C@@H](NC(=O)Nc1c(Cl)cc2c(c1Cl)CC[C@]2(O)C(F)(F)F)c1ccc(F)cc1 [Example 21, 1-[(1R)-4,6-dichloro-1-hydroxy-1-(trifluoromethyl)-2,3-dihydro-1H-inden-5-yl]-3-[(1R)-1-(4-fluorophenyl)ethyl]urea] the solubility at 5 h [1] was 72 µM (≈ 32.5 µg/mL), the EC50 (Human KCNQ2/3 channel) was 5 nM and the Residual ratio [2] was 95%.

C[C@@H](NC(=O)Nc1c(Cl)cc2c(c1Cl)CC[C@@]2(O)C(F)(F)F)c1ccc(F)cc1 [Example 22, 1-[(1S)-4,6-dichloro-1-hydroxy-1-(trifluoromethyl)-2,3-dihydro-1H-inden-5-yl]-3-[(1R)-1-(4-fluorophenyl)ethyl]urea] showed an EC50 (Human KCNQ2/3 channel) of 1 nM.

CC1(C)CC(C)(O)c2cc(Cl)c(NC(=O)NCc3ccc(C(F)(F)F)cn3)c(Cl)c21 (stereo not drawn) [Example 35, 1-(4,6-dichloro-1-hydroxy-1,3,3-trimethyl-2,3-dihydro-1H-inden-5-yl)-3-{[5-(trifluoromethyl)-2 pyridinyl]methyl}urea] gave a solubility at 5 h [1] of 80 µM (≈ 37 µg/mL), an EC50 (Human KCNQ2/3 channel) of 300 nM and a Residual ratio [2] of 81%.
